Source: PMC12746157, “Light-Regulated Agonists Spatiotemporally Activating the Vitamin D Receptor Mitigate Psoriasis-like Inflammation in Mice without Inducing Hypercalcemia” (ACS Central Science, 2025)

Experiments:
[1] = Proportions of cis and trans at the photostationary state in DMSO from absorbance spectra (Ernst Fischer method); format: physicochemical
Experimental: 2. Photochemical characterization.
(§1) A 50 µM solution of each compound in DMSO was dispensed into a transparent 96-well plate (200 µL per well). The absorption spectra were recorded from 300 to 600 nm with 2 nm fixed intervals using a Tecan Spark 20M Multimode microplate reader. Initial measurements were performed in the dark, followed by spectra acquired immediately after each 3 min period of light irradiation at different wavelengths using 96-well LED array plates (LEDA Teleopto). Theoretical absorbance spectra corresponding to the pure cis isomer (100%) of each compound were calculated in order to obtain the theoretical percentage of cis isomer at each wavelength, according to the method described by Ernst Fischer (1967). […]
Table S6. Proportions of cis and trans at the photostationary state in DMSO. […]

[2] = UV-Vis absorption spectra and thermal relaxation of the cis isomers in DMSO; format: physicochemical; conditions: 60 μM in 100% DMSO, 37 °C
Experimental: (§2) The UV–vis absorbance spectra of all molecules were measured in the dark and after the application of light of different wavelengths ranging from 365 to 770 nm (Figure A and Figures S1–S3). […] Consequently, violet/UV light below 405 nm efficiently promoted photoisomerization, which produced a dramatic decrease in the π-π* band and a significant increase in the n-π* band at around 445 nm (Table ). […] The proportion of molecules at the PSS in trans isomer upon constant illumination with light at 525 nm and cis at 365 nm was in general above 50%, reaching a remarkable >99% for compound 11d (Table and Figures S4 and S5). […] The greater stability of the trans isomer was consistent with previous quantum mechanical and molecular mechanics predictions. Measuring the photoisomerization properties of compound PhotoVDRM allowed us to determine the photoisomerization quantum yields of the compound by solving a differential equation for photoisomerization. We used MATLAB to perform regression and arrive at the following photoisomerization quantum yields: ϕ365 nm (trans) = 0.0427, ϕ365 nm (cis) = 0.0501, ϕ470 nm (trans) = 0.1857, and ϕ470 nm (cis) = 0.2281 (Figure S9). Compound PhotoVDRM was also evaluated in aqueous buffer used for pharmacological experiments (0.5% DMSO) showing a thermal relaxation of 3 h, almost 7 times faster than in pure DMSO (Figure B). […] A deeper photocharacterization of PhotoVDRM allowed us to measure the kinetics of photoconversion upon constant illumination with two wavelengths and three light intensities (Figure D and Figure S10). […] Indeed, with LED devices producing light at intensities as low as 0.05 mW/mm^2 we were able to transform trans to cis in around 15.5 s. This time was reduced to 6 and 2 s when the light intensity was increased to 0.15 and 0.75 mW/mm^2. […] Therefore, we proceeded to test the ability of the chemical library to activate the VDR under different light conditions.
2. Photochemical characterization. […]
as §1, with “(200” for “A 50 µM solution of each compound in DMSO was dispensed into a transparent 96-well plate (200”, “(1967). Thermal relaxation kinetics of the experimental cis isomers were assessed in quartz cuvettes (10 mm optical path) containing freshly prepared 50” for “(1967).”
Dark state absorbance at 365 nm was recorded at 37
ºC using a ThermoFisher Evolution 350 UV-Vis spectrophotometer. Samples were then irradiated for 3 minutes at 365 nm with a CoolLED pE-4000 light sourceto induce trans → cis photoisomerization.. Absorbance at 365 nm was subsequently monitored over 48 h: every 15 min during the first 24 h, and every 60 min during the following 24 h. Relaxation half-lives were determined by fitting the absorbance-time data to a […] exponential model using GraphPad Prism v10.4.1. […]

[3] = Photostationary state (PSS) determination by HPLC-MS in aqueous assay buffer; format: physicochemical; conditions: 21 °C, HPLC-MS, 60 μM, aqueous buffer 0.6% DMSO
Experimental: as §2
Photostationary state (PSS) determination. In a transparent vial, solutions of the compounds were prepared at a concentration of 60 µM from a 10 mM stock in DMSO, using the assay buffer of pharmacological experiments for dilution. Prior to illumination, a volume of 500 µL was transferred to an amber vial for the "dark" sample. The same procedure was repeated after exposing the transparent vial containing the 60 µM solutions to the following light conditions:
365nm for 3 minutes and 525nm for 3 minutes. […]
difference on isomeric proportions. For each sample, 20 µL was analyzed by HPLC-MS, and the isomer ratios were determined at the isosbestic point.
Isosbestic point determination. The solvent percentage for the elution of each isomer were calculated based on their retention times from HPLC analysis. Subsequently, 50 µM solutions were prepared from the 10 mM DMSO stock solution of each compound using the previously determined HPLC solvent mixture. The UV spectrum for each solution was recorded after illumination at 365 nm (30 seconds), at 400 nm (30 seconds), and at 525 nm (30 seconds). The spectra were overlaid to identify the isosbestic point of maximum intensity.
HPLC conditions. Analytical HPLC was performed on a Thermo Ultimate 3000SD (Thermo Scientific Dionex) coupled to a PDA detector and Mass Spectrometer LTQ XL ESI-ion trap (Thermo Scientific). Cromatographic separations were performed using a ZORBAX Eclipse Plus C18 (4.6 x 150mm; 3.5µm) column. The mobile phase consisted of an isocratic mixture of solvent A (water with 0.05% of formic acid) and solvent B (acetonitrile with 0.05% formic acid) at a 3:7 ratio for compounds 10a-d and a 2:3 ratio for compounds 11a-d and 12a-d. […]

[4] = test system: IL-23-induced psoriatic-like inflammation; assay: IL-23-induced mouse model of psoriasis (ear thickness); format: in vivo, C57BL/6N mice; conditions: 420 or 520 nm light regime; i.p. LSN2148936 0.005 mg/kg
Experimental: Each mice was administered interlueukin 23 (IL-23) once a day for a total of 3 days by intradermal injection (i.d.) into one of the mouse ears. Contralateral ear i.d. injected with PBS was used as control. Subsequently, ear thickness was measured daily, by using a digital caliper, as indicative of psoriasis-course progression (Figure A).
(A) Temporal scheme for IL-23-induced mouse model of psoriasis. Animals were treated with IL-23 (i.d.) in the left ear during three consecutive days (days 1, 2 and 3). In addition, a contralateral control was performed consisting of PBS administration in the right ear. At day 2, 3, and 4 animals were previously intraperitoneally (i.p.) administered with vehicle (saline) and drugs (i.e., LSN2148936; 0.005 mg/kg and PhotoVDRM; 0.5 mg/kg). Both ears were irradiated with 420 or 520 nm light at day 2, 3, and 4 during 8 min. […] (C) Inflammatory ear response measurements. Mice ear thickness determination in animals administrated (ip) on days 2, 3, and 4 with vehicle, LSN2148936 or PhotoVDRM treated with 420 or 520 nm light. Each day, ear thickness was measured in millimeters and represented as percentage of ear thickness increase using the first measurement of PBS-administrated ear as control. Data is shown as mean ± SD, n = 5 mice per group. Statistical analysis between PhotoVDRM and vehicle. *P < 0.05 and **P < 0.01 Student’s t test.

[5] = target: T1, VDR (Homo sapiens, UniProt P11473); conditions: vs other steroid receptors such as the glucocorticoid; no reference given; cited from earlier work
[6] = Serum total calcium measurement in mice (Arsenazo III); format: in vivo; conditions: after treatment i.p. days 2-4 (LSN2148936 0.005 mg/kg, PhotoVDRM 0.5 mg/kg), 420 or 520 nm
[7] = target: T1, VDR; assay: Luminescent proximity homogeneous assay (AlphaScreen): interaction of purified VDR, RxR and TRAP220 coactivator fragment; format: biochemical; conditions: UVB narrowband light (315 nm) and visible illumination at 420 nm
[8] = target: T1, VDR; assay: as above; format: biochemical
Experimental: The activity of all molecules was evaluated using a luminescent proximity homogeneous assay to study interactions between purified VDR, RxR and a fragment of the transcriptional coactivator TRAP220 (Supporting Information). This method allowed us to monitor the interaction between TRAP220 and the activated VDR-RxR heterodimer, which is of mechanistic and physiological significance. Both the activation of VDR and the VDR-RxR heterodimer formation are necessary to promote the whole complex association. This system efficiently includes conformational events of the receptor upon activation that go beyond a simple binding measurement. […]
The activity of all molecules was evaluated using an in-vitro luminescent proximity homogeneous assay by using the Alphascreen technology (Cat No. 6760619R, Perkin Elmer, now Revvity). In a transparent 96-well preplate, 10X concentrations of the compounds were prepared in assay buffer (0.1% bovine serum albumin, 2 mM 1,4-dithiothreitol, 25 mM HEPES and 100 mM NaCl; pH 7.3). LSN2148936 was used as positive control. Purified histidine-tagged VDR (44 µM), flag-RxRa (5.7 µM), biotin tagged TRAP220 transcriptional coactivator (500 µM), and the donor and acceptor beads from the AlphaScreen kit (2 µL/mL each), were diluted in assay buffer. In the dark, 6 µL/well of each test compound were pipetted on a white, shallow 96-well ProxiPlateTM […]
(§3) (Perkin Elmer, now Revvity, Cat.No. 6006290) in duplicate. Immediately, 54 µL of the protein solution were added and the plate was covered and incubated for 30 min at room temperature in the dark. Meanwhile, the plate with the 10X dilutions was illuminated at 365 nm for 3 min in a 96-well DED array plate (LEDA Teleopto), to allow the photoconversion of the molecules to their cis configuration. The illuminated compounds were mixed with the protein solution and incubated as described above for the plate in the dark. After the incubation time, the counts of both, the dark and illuminated plates, were measured in a Tecan Spark 20M Multimode plate reader with defined settings (excitation: 680 nm, emission: 520-620 nm, excitation time: 100ms, integration time: 300 ms). Biotinylated-His6 peptide (PerkinElmer) was used as a quality control reagent for AlphaScreen® assays and to evaluate compound interaction with the method. The raw data were normalized to the effect of the buffer (0%) and the maximum response obtained with LSN2148936 (100%). Dose-response curves and EC50 values were calculated with Graphpad software. Each experiment was performed in triplicate, with 2 replicates per plate.
4. Hydrogen/deuterium exchange coupled to mass spectrometry (HDX-MS)
The HDX-MS experiments were performed with an in-house automated modular system interfaced with an Orbitrap Exploris 480 mass spectrometer.1 Two inter-day experiments were conducted: one in the dark (first day) and one illuminated with 365 nm light (second day). Sample preparation and on-exchange reactions were performed on opaque plates (VWR® Real-Time […]
mm, Part Nº BC5226) light source was positioned above the Tecan system used for sample preparation. The distance between the UV light and the opaque plates was 80 cm. The 365 nm light illuminated the sample preparation process and the on-exchange reaction on the second day.
A 10 µM VDR-LBD protein stock solution was prepared in 20 mM HEPES buffer (with 150 mM NaCl, 10 mM D-L Methionine and 5 mM DTT) at pH 7.5. The compound 11b was prepared at 10 mM in DMSO. The protein: compound-complex (1:10 molar ratio) was pre-incubated for 1h before the first on-exchange reaction. The HDX reaction was initiated by a 5-fold dilution of the protein stock solution, in the presence and absence of compound 11b, in the corresponding Deuterated buffer at room temperature. Samples were prepared in parallel with three replicates of […]
time point, HDX reactions were quenched with a solution of 3 M Urea and 1% TFA (pH 2.5) followed by online proteolysis with an in-house Pepsin immobilized column and desalting […]

[9] = target: T2, VDR-LBD (Homo sapiens, UniProt P11473); assay: HDX-MS of VDR-LBD with ligand in the dark and under 365 nm light; format: binding; conditions: dark vs 365 nm illumination
T2 construct: VDR-LBD protein stock solution was prepared in 20 mM HEPES buffer
T2 sequence (P11473 127-423 limits assumed): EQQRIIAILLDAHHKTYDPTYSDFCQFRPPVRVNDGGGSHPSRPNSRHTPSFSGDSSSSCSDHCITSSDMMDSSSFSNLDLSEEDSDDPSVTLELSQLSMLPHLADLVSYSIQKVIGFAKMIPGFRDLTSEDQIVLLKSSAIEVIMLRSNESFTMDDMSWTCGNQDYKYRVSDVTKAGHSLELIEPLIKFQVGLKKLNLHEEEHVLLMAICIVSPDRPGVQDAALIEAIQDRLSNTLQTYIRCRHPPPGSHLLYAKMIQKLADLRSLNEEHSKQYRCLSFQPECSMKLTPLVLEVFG
Experimental: Although previously used to study the effect of a cyclic azopeptide in its activated cis state, here we studied the target dynamics upon direct application of the light to the sample. To this aim, HDX-MS was applied for the characterization of the binding mode and modulation of receptor dynamics of the racemic compound PhotoVDRM. VDR-LBD was incubated alone (to provide an apo control for each experiment) or with an excess of compound PhotoVDRM and exposed to deuterium labeling for various periods of time, from 10 s to 2 h, in the dark and illuminated with light at 365 nm. […] As an additional control experiment, we also evaluated the HDX-MS of VDR-LBD in the presence and absence of a standard agonist, compound LSN2148936, in the dark and under illumination conditions. […] In order to permit direct comparison, including mathematical manipulation of the data in all these experiments, the observed deuterium incorporation percentages were converted to rate constants (expressed as −log10(k)) using our previously published Bayesian approach.
as §3, with “The raw data were normalized to the effect of the buffer (0%) and the maximum response obtained with LSN2148936 (100%).” left out, “Each experiment was performed in triplicate, with 2 replicates per plate.” left out

T1 sequence (P11473 whole entry): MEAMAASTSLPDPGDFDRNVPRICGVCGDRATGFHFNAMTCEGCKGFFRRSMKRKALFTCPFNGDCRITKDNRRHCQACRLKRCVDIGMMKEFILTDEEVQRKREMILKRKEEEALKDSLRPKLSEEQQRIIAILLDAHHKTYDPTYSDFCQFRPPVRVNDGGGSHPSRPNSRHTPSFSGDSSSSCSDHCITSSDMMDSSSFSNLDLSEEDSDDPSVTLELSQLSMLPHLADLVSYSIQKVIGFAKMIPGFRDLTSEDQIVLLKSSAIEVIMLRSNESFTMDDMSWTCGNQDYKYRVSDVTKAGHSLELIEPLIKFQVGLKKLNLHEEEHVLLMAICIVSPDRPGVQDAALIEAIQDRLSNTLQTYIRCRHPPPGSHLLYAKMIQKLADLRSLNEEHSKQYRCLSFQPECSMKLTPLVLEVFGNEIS
T1 sequence (P19793 whole entry partner): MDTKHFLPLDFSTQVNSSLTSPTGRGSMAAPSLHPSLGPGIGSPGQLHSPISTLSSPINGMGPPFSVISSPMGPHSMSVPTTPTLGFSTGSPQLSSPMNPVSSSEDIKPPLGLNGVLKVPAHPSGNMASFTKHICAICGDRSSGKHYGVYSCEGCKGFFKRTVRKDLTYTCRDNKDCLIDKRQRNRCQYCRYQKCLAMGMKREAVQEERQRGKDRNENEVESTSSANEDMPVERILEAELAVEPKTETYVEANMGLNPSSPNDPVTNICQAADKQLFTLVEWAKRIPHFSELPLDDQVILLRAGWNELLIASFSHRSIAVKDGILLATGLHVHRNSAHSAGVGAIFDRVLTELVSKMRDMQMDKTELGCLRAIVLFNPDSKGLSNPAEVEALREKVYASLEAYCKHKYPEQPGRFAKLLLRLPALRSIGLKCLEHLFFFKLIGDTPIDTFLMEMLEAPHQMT
T1 sequence (Q15648 whole entry partner): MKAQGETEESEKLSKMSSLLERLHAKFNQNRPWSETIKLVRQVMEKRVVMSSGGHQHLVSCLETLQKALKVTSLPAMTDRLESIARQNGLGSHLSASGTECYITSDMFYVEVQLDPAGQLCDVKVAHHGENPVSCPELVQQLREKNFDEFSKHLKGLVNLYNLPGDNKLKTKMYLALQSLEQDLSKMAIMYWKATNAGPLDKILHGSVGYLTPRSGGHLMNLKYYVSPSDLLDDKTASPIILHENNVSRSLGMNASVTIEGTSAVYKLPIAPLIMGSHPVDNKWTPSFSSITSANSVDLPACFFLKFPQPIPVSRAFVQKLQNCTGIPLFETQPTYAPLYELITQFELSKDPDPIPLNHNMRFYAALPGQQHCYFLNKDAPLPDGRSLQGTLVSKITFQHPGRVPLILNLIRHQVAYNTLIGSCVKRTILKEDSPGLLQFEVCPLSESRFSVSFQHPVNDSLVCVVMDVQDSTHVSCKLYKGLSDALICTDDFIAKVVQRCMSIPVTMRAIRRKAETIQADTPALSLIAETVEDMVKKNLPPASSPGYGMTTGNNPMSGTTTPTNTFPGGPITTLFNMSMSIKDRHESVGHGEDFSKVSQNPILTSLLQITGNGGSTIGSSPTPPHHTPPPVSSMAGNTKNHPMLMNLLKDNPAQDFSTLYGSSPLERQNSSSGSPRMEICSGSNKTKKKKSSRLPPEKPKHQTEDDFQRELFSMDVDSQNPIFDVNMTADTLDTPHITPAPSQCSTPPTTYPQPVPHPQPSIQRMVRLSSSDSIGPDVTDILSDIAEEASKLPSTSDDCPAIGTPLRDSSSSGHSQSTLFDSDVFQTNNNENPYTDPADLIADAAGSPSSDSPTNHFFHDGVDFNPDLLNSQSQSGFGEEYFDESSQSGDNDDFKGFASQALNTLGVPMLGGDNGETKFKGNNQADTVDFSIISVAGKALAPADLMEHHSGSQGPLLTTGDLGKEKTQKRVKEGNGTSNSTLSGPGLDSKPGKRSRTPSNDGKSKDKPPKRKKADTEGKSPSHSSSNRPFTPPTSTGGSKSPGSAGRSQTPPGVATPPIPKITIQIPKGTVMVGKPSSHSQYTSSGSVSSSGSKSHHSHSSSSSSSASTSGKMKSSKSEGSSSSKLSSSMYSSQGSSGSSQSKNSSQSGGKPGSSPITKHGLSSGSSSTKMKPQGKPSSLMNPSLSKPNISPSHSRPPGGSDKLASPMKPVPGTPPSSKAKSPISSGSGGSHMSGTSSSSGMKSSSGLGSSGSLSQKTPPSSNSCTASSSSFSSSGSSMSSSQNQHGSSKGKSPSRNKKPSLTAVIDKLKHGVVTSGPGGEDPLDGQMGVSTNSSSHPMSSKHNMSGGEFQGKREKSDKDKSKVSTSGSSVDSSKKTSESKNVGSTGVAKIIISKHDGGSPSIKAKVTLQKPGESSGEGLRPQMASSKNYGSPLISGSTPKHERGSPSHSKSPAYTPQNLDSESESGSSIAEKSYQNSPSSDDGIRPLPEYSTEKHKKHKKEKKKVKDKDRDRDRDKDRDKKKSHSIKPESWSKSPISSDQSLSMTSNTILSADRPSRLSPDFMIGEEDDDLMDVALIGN

Cc1cc(/N=N/c2cccc(-c3ccc(CO)cc3C)c2)ccc1OCC(O)C(C)(C)C (centres unmarked) [Compound 12c]
%cis at the photostationary state ([1]; 365 nm): 96,95% | %trans at the photostationary state ([1]; 365 nm): 3,05% | %cis at the photostationary state ([1]; 380 nm): 95,69% | %trans at the photostationary state ([1]; 380 nm): 4,31% | %cis at the photostationary state ([1]; 405 nm): 59,74% | %trans at the photostationary state ([1]; 405 nm): 40,26% | %cis at the photostationary state ([1]; 420 nm): 56,13% | %trans at the photostationary state ([1]; 420 nm): 43,87% | %cis at the photostationary state ([1]; 470 nm): 28,95% | %trans at the photostationary state ([1]; 470 nm): 71,05% | %cis at the photostationary state ([1]; 500 nm): 30,48% | %trans at the photostationary state ([1]; 500 nm): 69,52% | %cis at the photostationary state ([1]; 530 nm): 26,87% | %trans at the photostationary state ([1]; 530 nm): 73,13% | t 1/2 (thermal relaxation of cis) [2]: 23.2 h | λn−π* (cis) ([2]; after illumination): 444 nm | λπ–π* (trans) ([2]; dark): 364 nm | PSS365 (% cis) ([3]; 3 min illumination 365 nm): 87% | PSS525 (%trans) ([3]; 3 min illumination 525 nm): 86%

CCC(CC)(c1ccc(CCC(O)C(C)(C)C)c(C)c1)c1ccc(C(=O)N(C)CC(=O)O)c(C)c1 (centres unmarked) [LSN2148936, reference compound]
IL-23-induced ear inflammation (ear thickness) [4]: prevented IL-23-associated inflammatory response | selectivity for VDR [5]: highly selective | effect on calcium homeostasis (serum total calcium) [6]: significant effects | modulation of activity by light [7]: not | Emax ([8]; after illumination (365 nm) for 3 min, normalized to maximum response of LSN2148936 (100%), mean ± SEM): 107 ± 0.08% | effect of application of light on activity (control) ([8]; dark vs 365 nm): not affected | light-dependent changes of HDX behavior [9]: no significant light-dependent changes
